Measurements as given in patent US6358885B1, “Substituted phenylheterocyclic herbicides” (Mississippi State University, priority 1992, dated 2002).

How the values were obtained:
Assay in all cases: Test B preemergence/postemergence greenhouse plant response rating 0 to 10
purple nutsedge = type: in vivo, Cyperus rotundus; conditions: for Plant response rating, Nutsedge: 0 to 10 scale; for Plant response rating (0 to 10 scale), Nutsedge: Rate 100 g/ha
How it was run: (§1)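 Postemergence treatment of plants two to eighteen cm tall ran alongside preemergence treatment of planted seed, each using compound in a non-phytotoxic solvent.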

cocklebur = type: in vivo, Xanthium pensylvanicum; conditions: for Plant response rating, Cocklebur: 0 to 10 scale
How it was run: as §1

soybean = type: in vivo, Glycine max; conditions: for Plant response rating, Soybean: 0 to 10 scale; for Plant response rating (0 to 10 scale), Soybean: Rate 100 g/ha
How it was run: as §1

rice = type: in vivo, Oryza sativa; conditions: for Plant response rating, Rice: 0 to 10 scale; for Plant response rating (0 to 10 scale), Rice: Rate 100 g/ha
How it was run: as §1

wild buckwheat = type: in vivo, Polygonum convolvulus; conditions: for Plant response rating, Wild buckwheat: 0 to 10 scale; for Plant response rating (0 to 10 scale), Wild buckwheat: Rate 100 g/ha
How it was run: as §1

Compound: Clc1ccc(-c2nc3n(c2Cl)CCC=C3)c(Cl)c1 [Compound 1]
- Plant response rating, Nutsedge (purple nutsedge; POSTEMERGENCE, Rate 50 g/ha): 0
- Plant response rating, Nutsedge (purple nutsedge; POSTEMERGENCE, Rate 200 g/ha): 0
- Plant response rating, Nutsedge (purple nutsedge; Rate 200 g/ha, PREEMERGENCE): 0
- Plant response rating (0 to 10 scale), Cocklebur (cocklebur; POSTEMERGENCE, Rate 50 g/ha): 4
- Plant response rating, Cocklebur (cocklebur; POSTEMERGENCE, Rate 200 g/ha): 4
- Plant response rating, Cocklebur (cocklebur; PREEMERGENCE, Rate 50 g/ha): 0
- Plant response rating, Cocklebur (cocklebur; Rate 200 g/ha, PREEMERGENCE): 0
- Plant response rating, Soybean (soybean; POSTEMERGENCE, Rate 50 g/ha): 4
- Plant response rating, Soybean (soybean; POSTEMERGENCE, Rate 200 g/ha): 4
- Plant response rating, Soybean (soybean; PREEMERGENCE, Rate 50 g/ha): 0
- Plant response rating, Soybean (soybean; Rate 200 g/ha, PREEMERGENCE): 0
- Plant response rating, Rice (rice; POSTEMERGENCE, Rate 50 g/ha): 4
- Plant response rating, Rice (rice; POSTEMERGENCE, Rate 200 g/ha): 3
- Plant response rating, Rice (rice; PREEMERGENCE, Rate 50 g/ha): 0
- Plant response rating, Rice (rice; Rate 200 g/ha, PREEMERGENCE): 0
- Plant response rating, Wild buckwheat (wild buckwheat; POSTEMERGENCE, Rate 50 g/ha): 5
- Plant response rating, Wild buckwheat (wild buckwheat; POSTEMERGENCE, Rate 200 g/ha): 9
- Plant response rating, Wild buckwheat (wild buckwheat; Rate 200 g/ha, PREEMERGENCE): 0

Compound: Clc1ccc(-c2nc3n(c2Br)CCCC3)c(Cl)c1 [Compound 2]
- Plant response rating, Nutsedge (purple nutsedge; POSTEMERGENCE, Rate 50 g/ha): 0
- Plant response rating (0 to 10 scale), Nutsedge (purple nutsedge; POSTEMERGENCE): 0
- Plant response rating, Nutsedge (purple nutsedge; POSTEMERGENCE, Rate 200 g/ha): 0
- Plant response rating, Nutsedge (purple nutsedge; POSTEMERGENCE, Rate 400 g/ha): 0
- Plant response rating, Nutsedge (purple nutsedge; PREEMERGENCE, Rate 50 g/ha): 0
- Plant response rating (0 to 10 scale), Nutsedge (purple nutsedge; PREEMERGENCE): 0
- Plant response rating, Nutsedge (purple nutsedge; PREEMERGENCE, Rate 400 g/ha): 0
- Plant response rating, Nutsedge (purple nutsedge; Rate 200 g/ha, PREEMERGENCE): 0
- Plant response rating (0 to 10 scale), Cocklebur (cocklebur; POSTEMERGENCE, Rate 50 g/ha): 7
- Plant response rating (0 to 10 scale), Cocklebur (cocklebur; POSTEMERGENCE, Rate 100 g/ha): 7
- Plant response rating, Cocklebur (cocklebur; POSTEMERGENCE, Rate 200 g/ha): 6
- Plant response rating, Cocklebur (cocklebur; POSTEMERGENCE, Rate 400 g/ha): 8
- Plant response rating, Cocklebur (cocklebur; PREEMERGENCE, Rate 50 g/ha): 0
- Plant response rating (0 to 10 scale), Cocklebur (cocklebur; PREEMERGENCE, Rate 100 g/ha): 0
- Plant response rating, Cocklebur (cocklebur; PREEMERGENCE, Rate 400 g/ha): 0
- Plant response rating, Cocklebur (cocklebur; Rate 200 g/ha, PREEMERGENCE): 0
- Plant response rating, Soybean (soybean; POSTEMERGENCE, Rate 50 g/ha): 6
- Plant response rating (0 to 10 scale), Soybean (soybean; POSTEMERGENCE): 6
- Plant response rating, Soybean (soybean; POSTEMERGENCE, Rate 200 g/ha): 6
- Plant response rating, Soybean (soybean; POSTEMERGENCE, Rate 400 g/ha): 7
- Plant response rating, Soybean (soybean; PREEMERGENCE, Rate 50 g/ha): 0
- Plant response rating (0 to 10 scale), Soybean (soybean; PREEMERGENCE): 0
- Plant response rating, Soybean (soybean; PREEMERGENCE, Rate 400 g/ha): 0
- Plant response rating, Soybean (soybean; Rate 200 g/ha, PREEMERGENCE): 0
- Plant response rating, Rice (rice; POSTEMERGENCE, Rate 50 g/ha): 3
- Plant response rating (0 to 10 scale), Rice (rice; POSTEMERGENCE): 4
- Plant response rating, Rice (rice; POSTEMERGENCE, Rate 200 g/ha): 4
- Plant response rating, Rice (rice; POSTEMERGENCE, Rate 400 g/ha): 4
- Plant response rating, Rice (rice; PREEMERGENCE, Rate 50 g/ha): 0
- Plant response rating (0 to 10 scale), Rice (rice; PREEMERGENCE): 0
- Plant response rating, Rice (rice; PREEMERGENCE, Rate 400 g/ha): 0
- Plant response rating, Rice (rice; Rate 200 g/ha, PREEMERGENCE): 0
- Plant response rating, Wild buckwheat (wild buckwheat; POSTEMERGENCE, Rate 50 g/ha): 10
- Plant response rating (0 to 10 scale), Wild buckwheat (wild buckwheat; POSTEMERGENCE): 10
- Plant response rating, Wild buckwheat (wild buckwheat; POSTEMERGENCE, Rate 200 g/ha): 10
- Plant response rating, Wild buckwheat (wild buckwheat; POSTEMERGENCE, Rate 400 g/ha): 10
- Plant response rating, Wild buckwheat (wild buckwheat; PREEMERGENCE, Rate 50 g/ha): 0
- Plant response rating (0 to 10 scale), Wild buckwheat (wild buckwheat; PREEMERGENCE): 0
- Plant response rating, Wild buckwheat (wild buckwheat; PREEMERGENCE, Rate 400 g/ha): 0
- Plant response rating, Wild buckwheat (wild buckwheat; Rate 200 g/ha, PREEMERGENCE): 0

Compound: CC(C)Oc1cc(-c2nn3c(c2Cl)CCCC3)c(F)cc1Cl [Compound 21]
- Plant response rating, Nutsedge (purple nutsedge; POSTEMERGENCE, Rate 50 g/ha): 1
- Plant response rating, Nutsedge (purple nutsedge; POSTEMERGENCE, Rate 200 g/ha): 3
- Plant response rating, Nutsedge (purple nutsedge; PREEMERGENCE, Rate 50 g/ha): 0
- Plant response rating, Nutsedge (purple nutsedge; Rate 200 g/ha, PREEMERGENCE): 0
- Plant response rating (0 to 10 scale), Cocklebur (cocklebur; POSTEMERGENCE, Rate 50 g/ha): 8
- Plant response rating, Cocklebur (cocklebur; POSTEMERGENCE, Rate 200 g/ha): 10
- Plant response rating, Cocklebur (cocklebur; PREEMERGENCE, Rate 50 g/ha): 2
- Plant response rating, Cocklebur (cocklebur; Rate 200 g/ha, PREEMERGENCE): 2
- Plant response rating, Soybean (soybean; POSTEMERGENCE, Rate 50 g/ha): 9
- Plant response rating, Soybean (soybean; POSTEMERGENCE, Rate 200 g/ha): 9
- Plant response rating, Soybean (soybean; PREEMERGENCE, Rate 50 g/ha): 0
- Plant response rating, Soybean (soybean; Rate 200 g/ha, PREEMERGENCE): 2
- Plant response rating, Rice (rice; POSTEMERGENCE, Rate 50 g/ha): 5
- Plant response rating, Rice (rice; POSTEMERGENCE, Rate 200 g/ha): 6
- Plant response rating, Rice (rice; PREEMERGENCE, Rate 50 g/ha): 0
- Plant response rating, Rice (rice; Rate 200 g/ha, PREEMERGENCE): 2
- Plant response rating, Wild buckwheat (wild buckwheat; POSTEMERGENCE, Rate 50 g/ha): 10
- Plant response rating, Wild buckwheat (wild buckwheat; POSTEMERGENCE, Rate 200 g/ha): 10
- Plant response rating, Wild buckwheat (wild buckwheat; PREEMERGENCE, Rate 50 g/ha): 7
- Plant response rating, Wild buckwheat (wild buckwheat; Rate 200 g/ha, PREEMERGENCE): 9
